# Molecular target: p38 MAP-kinase (Homo sapiens, UniProt Q16539)
# Experiment: Enzymatic assay: inhibition of p38 MAP-kinase (phosphorylation of GST-tagged ATF2, chemoluminescence bead readout)
# Type: biochemical
# Settings: inhibitor 1 μM; activated p38 MAP-kinase 1 nM; 4 h preincubation; ATP 100 μM; ATF2 10 nM; read-out: % inhibitory effect at 1 μM
# Description: In this, the amount of a substrate phosphorylated by the kinase is quantified. The test is carried out as follows:
# The kinase reaction is carried out in the presence of HEPES (20 mM, pH 7), MgCl2 (10 mM), DTT (1 mM) and TWEEN20 (0.01%). First, dimethylsulphoxide or inhibitor (final concentration: 1 μM) dissolved in dimethylsulphoxide are placed in a reaction vessel. Then the activated p38 MAP-kinase (final concentration 1 nM) is added and the mixture is incubated for 4 h at ambient temperature. Then a mixture of substrate (GST-tagged ATF2) and ATP is added and everything is incubated together for a further hour (final concentration ATP: 100 μM; final concentration ATF2: 10 nM).
# The concentration of phosphorylated ATF2 is quantified by chemoluminescence-induced light emission. For this, a glutathione donor bead (final concentration: 5 μg/ml) which binds to the gluthathione on the ATF2 and phospho-ATF2 antibodies are added to the reaction mixture (final concentration: 3 nM; this binds the phosphate group added by the kinase reaction) to which a Protein A Acceptor Bead (final concentration: 5 μg/ml) binds. These components are dissolved in a buffer which contains 20 mM HEPES pH 7.0, 200 mM NaCL, 80 mM EDTA as well as 0.3% BSA. This reaction mixture is incubated in the dark for 1 hour at ambient temperature. When these beads come physically close, visible light is emitted which is measured in a photometer at 520-620 nm.
# To determine the inhibitory activity of the compounds according to the invention a calculation is made to determine the percentage by which the kinase activity is inhibited at a fixed inhibitor concentration of 1 μM. The maximum activity is determined by non-inhibited kinase. The minimum activity or nonspecific background activity is determined using a reaction mixture without kinase. […] Table 2 summarises the degree of inhibition of the enzyme p38 MAP-kinase—as described hereinbefore—of the compounds according to the invention detailed in the section “Preparation of the final compounds”.
# p38 MAP-kinase, sequence (Q16539 whole entry): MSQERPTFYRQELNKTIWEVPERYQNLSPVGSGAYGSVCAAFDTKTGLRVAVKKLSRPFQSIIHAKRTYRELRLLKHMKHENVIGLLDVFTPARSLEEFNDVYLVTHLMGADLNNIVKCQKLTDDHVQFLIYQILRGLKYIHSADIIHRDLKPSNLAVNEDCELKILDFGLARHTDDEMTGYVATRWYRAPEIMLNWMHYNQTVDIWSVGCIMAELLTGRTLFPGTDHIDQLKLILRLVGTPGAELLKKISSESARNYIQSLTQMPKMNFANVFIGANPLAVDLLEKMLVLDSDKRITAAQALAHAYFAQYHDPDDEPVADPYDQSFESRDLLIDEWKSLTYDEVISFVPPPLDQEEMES
compound,measurement,value
"COc1c(NC(=O)c2ccc(C)c(Oc3cc(CNCCN(C)C)ncn3)c2)cc(C(C)(C)C)cc1NS(C)(=O)=O [8(29), N-(5-tert-butyl-3-methanesulphonylamino-2-methoxy-phenyl)-3-{6-[(2-dimethylamino-ethylamino)-methyl]-pyrimidin-4-yloxy}-4-methyl-benzamide]",inhibition at 1 µM,89%
"COc1c(NC(=O)c2ccc(Cl)c(Oc3ccnc(NC4CCN(C)CC4)n3)c2)cc(C(C)(C)C)cc1NS(C)(=O)=O [4(15), N-(5-tert-butyl-3-methanesulphonylamino-2-methoxy-phenyl)-4-chloro-3-[2-(1-methyl-piperidin-4-ylamino)-pyrimidin-4-yloxy]-benzamide]",inhibition at 1 µM,99.6%
"COc1c(NC(=O)c2ccc(C)c(Oc3cc(CC4CCN(C)CC4)ncn3)c2)cc(C(C)(C)C)cc1NS(C)(=O)=O [Example 9, N-(5-tert-butyl-3-methanesulphonylamino-2-methoxy-phenyl)-4-methyl-3-[6-(1-methyl-piperidin-4-ylmethyl)-pyrimidin-4-yloxy]-benzamide]",inhibition at 1 µM,98.4%
"COc1c(NC(=O)c2ccc(C)c(Oc3ccnc(N4CC[C@H](N(C)C)C4)n3)c2)cc(C(C)(C)C)cc1NS(C)(=O)=O [4(7), (S)-N-(5-tert-butyl-3-methanesulphonylamino-2-methoxy-phenyl)-3-[2-(3-dimethylamino-pyrrolidin-1-yl)-pyrimidin-4-yloxy]-4-methyl-benzamide]",inhibition at 1 µM,98.6%
"COc1c(NC(=O)c2ccc(C)c(Oc3cc(N4CCCC4)ncn3)c2)cc(C(C)(C)C)cc1NS(C)(=O)=O [4(4), N-(5-tert-butyl-3-methanesulphonylamino-2-methoxy-phenyl)-4-methyl-3-(6-pyrrolidin-1-yl-pyrimidin-4-yloxy)-benzamide]",inhibition at 1 µM,97.5%
"COc1c(NC(=O)c2ccc(Cl)c(Oc3ccnc(NC4CCNCC4)c3)c2)cc(C(C)(C)C)cc1NS(C)(=O)=O [5(31), N-(5-tert-butyl-3-methanesulphonylamino-2-methoxy-phenyl)-4-chloro-3-[2-(piperidin-4-ylamino)-pyridin-4-yloxy]-benzamide]",inhibition at 1 µM,99.4%
"COc1c(NC(=O)c2ccc(Cl)c(Oc3ccnc(N4CCNCC4)n3)c2)cc(C(C)(C)C)cc1NS(C)(=O)=O [5(5), N-(5-tert-butyl-3-methanesulphonylamino-2-methoxy-phenyl)-4-chloro-3-(2-piperazin-1-yl-pyrimidin-4-yloxy)-benzamide]",inhibition at 1 µM,98.3%
"COc1c(NC(=O)c2ccc(Cl)c(Oc3ccnc(CNCCN(C)C)n3)c2)cc(C(C)(C)C)cc1NS(C)(=O)=O [8(37), N-(5-tert-butyl-3-methanesulphonylamino-2-methoxy-phenyl)-4-chloro-3-{2-[(2-dimethylamino-ethylamino)-methyl]-pyrimidin-4-yloxy}-benzamide]",inhibition at 1 µM,91.3%
"COc1c(NC(=O)c2ccc(C)c(Oc3ccnc(NCCN4CCCC4)n3)c2)cc(C(C)(C)C)cc1NS(C)(=O)=O [Example 4, N-(5-tert-butyl-3-methanesulphonylamino-2-methoxy-phenyl)-4-methyl-3-[2-(2-pyrrolidin-1-yl-ethylamino)-pyrimidin-4-yloxy]-benzamide]",inhibition at 1 µM,97.7%
"COc1c(NC(=O)c2ccc(C)c(Oc3ccnc(N(C)C4CCNC4)n3)c2)cc(C(C)(C)C)cc1NS(C)(=O)=O (stereo not shown) [5(24), N-(5-tert-butyl-3-methanesulphonylamino-2-methoxy-phenyl)-4-methyl-3-[2-(methyl-pyrrolidin-3-yl-amino)-pyrimidin-4-yloxy]-benzamide]",inhibition at 1 µM,97.9%
"COc1c(NC(=O)c2ccc(C)c(Oc3ccnc(N4CC[C@@H](N(C)C)C4)n3)c2)cc(C(C)(C)C)cc1NS(C)(=O)=O [4(6), (R)-N-(5-tert-butyl-3-methanesulphonylamino-2-methoxy-phenyl)-3-[2-(3-dimethylamino-pyrrolidin-1-yl)-pyrimidin-4-yloxy]-4-methyl-benzamide]",inhibition at 1 µM,98%
"COc1c(NC(=O)c2ccc(Cl)c(Oc3ccnc(CN4CCCN(C)CC4)n3)c2)cc(C(C)(C)C)cc1NS(C)(=O)=O [8(35), N-(5-tert-butyl-3-methanesulphonylamino-2-methoxy-phenyl)-4-chloro-3-[2-(4-methyl-[1,4]diazepan-1-ylmethyl)-pyrimidin-4-yloxy]-benzamide]",inhibition at 1 µM,98.6%
"COc1c(NC(=O)c2ccc(Br)c(Oc3ccnc(N4CCNCC4)n3)c2)cc(C(C)(C)C)cc1NS(C)(=O)=O [5(11), N-(5-tert-butyl-3-methanesulphonylamino-2-methoxy-phenyl)-4-bromo-3-(2-piperazin-1-yl-pyrimidin-4-yloxy)-benzamide]",inhibition at 1 µM,98.4%
"COc1c(NC(=O)c2ccc(C)c(Oc3ccnc(CN(C)C4CCN(C)C4)n3)c2)cc(C(C)(C)C)cc1NS(C)(=O)=O (stereo not shown) [8(19), N-(5-tert-butyl-3-methanesulphonylamino-2-methoxy-phenyl)-4-methyl-3-(2-{[methyl-(1-methyl-pyrrolidin-3-yl)-amino]-methyl}-pyrimidin-4-yloxy)-benzamide]",inhibition at 1 µM,97%
"COc1c(NC(=O)c2ccc(Cl)c(Oc3cc(CN4CCCNCC4)ncn3)c2)cc(C(C)(C)C)cc1NS(C)(=O)=O [5(36), N-(5-tert-butyl-3-methanesulphonylamino-2-methoxy-phenyl)-4-chloro-3-(6-[1,4]diazepan-1-ylmethyl-pyrimidin-4-yloxy)-benzamide]",inhibition at 1 µM,99.3%
"COc1c(NC(=O)c2ccc(C)c(Oc3ccnc(CN4CC[C@@H](O)C4)c3)c2)cc(C(C)(C)C)cc1NS(C)(=O)=O [8(12), (R)-N-(5-tert-butyl-3-methanesulphonylamino-2-methoxy-phenyl)-3-[2-(3-hydroxy-pyrrolidin-1-ylmethyl)-pyridin-4-yloxy]-4-methyl-benzamide]",inhibition at 1 µM,97%
"COc1c(NC(=O)c2ccc(C)c(Oc3ccnc(CC4CCNCC4)n3)c2)cc(C(C)(C)C)cc1NS(C)(=O)=O [5(19), N-(5-tert-butyl-3-methanesulphonylamino-2-methoxy-phenyl)-4-methyl-3-(2-piperidin-4-ylmethyl-pyrimidin-4-yloxy)-benzamide]",inhibition at 1 µM,99.7%
"COc1c(NC(=O)c2ccc(C)c(Oc3ccnc(CN4CCOCC4)n3)c2)cc(C(C)(C)C)cc1NS(C)(=O)=O [8(3), N-(5-tert-butyl-3-methanesulphonylamino-2-methoxy-phenyl)-4-methyl-3-(2-morpholin-4-ylmethyl-pyrimidin-4-yloxy)-benzamide]",inhibition at 1 µM,95.2%
"COc1c(NC(=O)c2ccc(C)c(Oc3cc(NC4CCN(C)CC4)ncn3)c2)cc(C(C)(C)C)cc1NS(C)(=O)=O [4(10), N-(5-tert-butyl-3-methanesulphonylamino-2-methoxy-phenyl)-4-methyl-3-[6-(1-methyl-piperidin-4-ylamino)-pyrimidin-4-yloxy]-benzamide]",inhibition at 1 µM,100%
"COc1c(NC(=O)c2ccc(F)c(Oc3ccnc(N4CCNCC4)n3)c2)cc(C(C)(C)C)cc1NS(C)(=O)=O [5(10), N-(5-tert-butyl-3-methanesulphonylamino-2-methoxy-phenyl)-4-fluoro-3-(2-piperazin-1-yl-pyrimidin-4-yloxy)-benzamide x trifluoroacetic acid]",inhibition at 1 µM,94.6%
"COc1c(NC(=O)c2cc(F)c(C)c(Oc3ccnc(N4CCNCC4)n3)c2)cc(C(C)(C)C)cc1NS(C)(=O)=O [5(13), N-(5-tert-butyl-3-methanesulphonylamino-2-methoxy-phenyl)-3-fluoro-4-methyl-5-(2-piperazin-1-yl-pyrimidin-4-yloxy)-benzamide]",inhibition at 1 µM,98.2%
"COc1c(NC(=O)c2ccc(C)c(Oc3ccnc(N4CCNCC4)n3)c2)cc(C(C)(C)C)cc1NS(C)(=O)=O [Example 5, N-(5-tert-butyl-3-methanesulphonylamino-2-methoxy-phenyl)-4-methyl-3-(2-piperazin-1-yl-pyrimidin-4-yloxy)-benzamide x trifluoroacetic acid]",inhibition at 1 µM,99%
"COc1c(NC(=O)c2ccc(Cl)c(Oc3ccnc(NC4CCN(C)CC4)c3)c2)cc(C(C)(C)C)cc1NS(C)(=O)=O [Example 10, N-(5-tert-butyl-3-methanesulphonylamino-2-methoxy-phenyl)-4-chloro-3-[2-(1-methyl-piperidin-4-ylamino)-pyridin-4-yloxy]-benzamide]",inhibition at 1 µM,99.6%
"COc1c(NC(=O)c2ccc(C)c(Oc3cc(NC4CCNCC4)ncn3)c2)cc(C(C)(C)C)cc1NS(C)(=O)=O [5(17), N-(5-tert-butyl-3-methanesulphonylamino-2-methoxy-phenyl)-4-methyl-3-[6-(piperidin-4-ylamino)-pyrimidin-4-yloxy]-benzamide x trifluoroacetic acid]",inhibition at 1 µM,98.2%
"CCc1ccc(C(=O)Nc2cc(C(C)(C)C)cc(NS(C)(=O)=O)c2OC)cc1Oc1ccnc(N2CCNCC2)n1 [5(15), N-(5-tert-butyl-3-methanesulphonylamino-2-methoxy-phenyl)-4-ethyl-5-(2-piperazin-1-yl-pyrimidin-4-yloxy)-benzamide]",inhibition at 1 µM,96%

# From patent US8946438B2, “Benzamides, production thereof, and use thereof as medicaments” (Boehringer Ingelheim International GmbH, priority 2008, dated 2015)
